The structures appear in SMILES notation. Counter-ions that a name gives are not always drawn.

The assay deals with Proteus. As to the kind of experiment: Proteus background growth, plates inoculated with mixed culture of Proteus and Shigella. The class given is cell-based. Particulars: general statement. The text has this: FIG. 6 is a photograph of two plates. The plate on the right is coated with the selective growth media N4 agar of the present invention. The plate on the left is coated with SS agar.
FIG. 7 presents a photograph of two agar coated plates. On the right is a plate coated with a prototype N4 formulation assessing the concentration of NIAPROOF®4 for the suppression of competing, background bacterial growth while allowing good growth of Shigella. The plate on the left is coated with XLD agar. Both plates were inoculated with a mixed culture of Proteus and Shigella organisms and allowed to grow overnight.

Turning to `CCCCC(CC)CCC(CC(C)C)OS(=O)(=O)O` (stereo not shown) [NIAPROOF®4, 7-ethyl-2-methyl-4-undecanol hydrogen sulfate], the “Suppression of Proteus spp.” value is “very potent reagent in suppressing Proteus spp”.

The record behind these values is patent US7842496B2, “Advanced selective plating media” (University of Maryland, priority 2006, dated 2010).
